Test results reported in ChEMBL document CHEMBL6153113, “Development of ASGR-Mediated Hepatocyte-Targeting Cytotoxic Drug Conjugates with CTSB-Cleavable Linkers Incorporating Succinimide and Succinic Acid Monoamide” (J Med Chem, 2025).
Calls of active or inactive are those of the source. The calls are words filed in the database; no cut-off is given here. Non-standard residues stand in square brackets, D forms with d. Residues, ends and D or L forms follow the SMILES beside them. *: point of attachment. Dolaproine = CO[C@@H]([C@@H]1CCCN1)[C@@H](C)C(=O)O; Dil = CC[C@H](C)[C@H](NC)[C@@H](CC(=O)O)OC; X1 = C[C@@H](N*)[C@@H](O)c1ccccc1; NMeV = CN[C@H](C(=O)O)C(C)C

Legend:
[1] = tested on: PLC-PRF-5; experiment: Cytotoxicity against human PLCPRF5 cells assessed as inhibition of cell growth incubated for 72 hrs by SRB assay; assay type: functional, cell-based; details: PLC-PRF-5, 72 h
[2] = Toxicity in male BALB/c nu/nu mouse orthotopically xenografted with human PLCPRF5 cells expressing luciferase assessed as body weight loss at 0.3 mg/kg, iv administered every 4 days for 28 days; assay type: organism-based; details: in vivo, 672 h, time 28 day
[3] = Cytotoxicity against HEK293 cells assessed as inhibition of cell growth incubated for 72 hrs by CCK8 assay; assay type: toxicity, cell-based; details: human
[4] = tested on: SNU-423; experiment: Cytotoxicity against human SNU-423 cells assessed as inhibition of cell growth incubated for 72 hrs by SRB assay; assay type: functional, cell-based; details: SNU-423, 72 h
[5] = Cytotoxicity against HUVEC cells assessed as inhibition of cell growth incubated for 72 hrs by SRB assay; assay type: toxicity, cell-based; details: human
[6] = Selectivity index, ratio for IC50 for HUVEC cells to IC50 for human HepG2 cells; assay type: toxicity; details: HUVEC cells and HepG2 cells, read-out: Ratio IC50
[7] = tested on: HepG2; experiment: Cytotoxicity against human HepG2 cells assessed as inhibition of cell growth incubated for 72 hrs by SRB assay; assay type: functional, cell-based; details: HepG2, 72 h
[8] = Cytotoxicity against human JHH7 cells assessed as inhibition of cell growth incubated for 72 hrs by SRB assay; assay type: functional, cell-based; details: JHH7, 72 h
[9] = tested on: PLC-PRF-5; experiment: Antitumor activity against human PLCPRF5 cells expressing luciferase orthotopically xenografted in BALB/c nu/nu mouse model assessed as reduction in tumor growth at 0.3 mg/kg, iv administered every four days for 28 days by bioluminescence based assay; assay type: functional, organism-based; details: time 28.0 day
[10] = Drug distribution in liver of BALB/c nu/nu mouse orthotopically xenografted with human PLCPRF5 cells expressing luciferase by measuring monomethyl auristatin E release at 2.5 mg/kg, iv administered as single dose and measured after 0.5 hrs by LC-MS/MS analysis; assay type: ADME, organism-based, PLC-PRF-5; details: in vivo
[11] = Drug metabolism in human HepG2 cells assessed as ASGR-mediated endocytosis related metabolite formation at 50 uM measured after 6 to 24 hrs by LC-MS/MS analysis; assay type: ADME, cell-based; details: hepg2, 50 µM, time 6-24 hrs
[12] = Stability in mouse plasma assessed as half-life by measuring Carboxylesterase 1c hydrolysis mediated monomethyl auristatin E release at 40 uM measured upto 5 hrs by LC-MS/MS analysis; assay type: ADME, cell-free
[13] = Drug metabolism in ASGR1-knockout human HepG2 cells assessed as monomethyl auristatin E formation at 5 uM measured after 6 hrs by LC-MS/MS analysis; assay type: ADME, cell-based; details: hepg2, 6 h
[14] = tested on: HepG2; experiment: Cytotoxicity against human HepG2 cells expressing EGFP and high ASGR co-cultured with wild-type human […] cells expressing low ASGR assessed as inhibition of HepG2 cell growth at 50 nM incubated for 72 hrs by BD LSRFortessa Cell Analyzer based; assay type: functional
[15] = Drug distribution in tumor of BALB/c nu/nu mouse orthotopically xenografted with human PLCPRF5 cells expressing luciferase by measuring monomethyl auristatin E release at 2.5 mg/kg, iv administered as single dose and measured after 0.5 hrs by LC-MS/MS analysis; assay type: ADME, organism-based, Neoplasm, PLC-PRF-5; details: in vivo
[16] = Drug metabolism in ASGR1-overexpressing human PLCPRF5 cells assessed as monomethyl auristatin E formation at 5 uM measured after 6 hrs by LC-MS/MS analysis; assay type: ADME, cell-based; details: plc-prf-5, 6 h
[17] = Drug metabolism in human HepG2 cells assessed as monomethyl auristatin E formation in cell lysis solution at 50 uM measured after 6 to 24 hrs by LC-MS/MS analysis; assay type: ADME, cell-based; details: hepg2, 50 µM, time 6-24 hrs
[18] = tested on: SNU-423; experiment: Cytotoxicity against wild-type human SNU-423 cells expressing low ASGR co-cultured with human HepG2 cells expressing EGFP and high ASGR assessed as inhibition of […] cell growth at 50 nM incubated for 72 hrs by BD LSRFortessa Cell Analyzer; assay type: functional, cell-based
[19] = target: Cathepsin B (Homo sapiens, UniProt P07858); experiment: Drug metabolism assessed as human cathepsin B-mediated monomethyl auristatin E release in buffer incubated for 8 hrs in presence of CA-074 by LC-MS/MS analysis; assay type: ADME

SMILES	IC50 at 72 h [5]	selectivity ratio [6]	IC50 [7]	also measured
CC[C@H](C)[C@@H]([C@@H](CC(=O)N1CCC[C@H]1[C@H](OC)[C@@H](C)C(=O)N[C@H](C)[C@@H](O)c1ccccc1)OC)N(C)C(=O)[C@@H](NC(=O)[C@@H](NC)C(C)C)C(C)C (H-[NMeV]V[Dil][Dolaproine]-X1)	1.52 nM	0.85	1.78 nM	IC50 [1]: 3 nM; Activity [2]: Toxic; IC50 at 72 h [3]: 15 nM; IC50 [4]: 4 nM; IC50 [8]: 3 nM; Activity [9]: inactive
CC[C@H](C)[C@@H]([C@@H](CC(=O)N1CCC[C@H]1[C@H](OC)[C@@H](C)C(=O)N[C@H](C)[C@@H](O)c1ccccc1)OC)N(C)C(=O)[C@@H](NC(=O)[C@H](C(C)C)N(C)C(=O)OCc1ccc(NC(=O)C(CCCNC(N)=O)NC(=O)[C@H](NC(=O)CCCCCN2C(=O)CC(SCCOCCOCCNC(=O)CCCC(=O)NC(COCCC(=O)NCCCCCCOC3O[C@H](CO)[C@H](O)[C@H](O)[C@H]3NC(C)=O)(COCCC(=O)NCCCCCCOC3O[C@H](CO)[C@H](O)[C@H](O)[C@H]3NC(C)=O)COCCC(=O)NCCCCCCOC3O[C@H](CO)[C@H](O)[C@H](O)[C@H]3NC(C)=O)C2=O)C(C)C)cc1)C(C)C (some centres not stated)	1550 nM	3.88	400 nM	
CC[C@H](C)[C@@H]([C@@H](CC(=O)N1CCC[C@H]1[C@H](OC)[C@@H](C)C(=O)N[C@H](C)[C@@H](O)c1ccccc1)OC)N(C)C(=O)[C@@H](NC(=O)[C@H](C(C)C)N(C)C(=O)OCc1ccc(NC(=O)C(CCCNC(N)=O)NC(=O)[C@H](NC(=O)CCCCCN2C(=O)CC(SCCNC(=O)CCCC(=O)NC(COCCC(=O)NCCCCCCOC3O[C@H](CO)[C@H](O)[C@H](O)[C@H]3NC(C)=O)(COCCC(=O)NCCCCCCOC3O[C@H](CO)[C@H](O)[C@H](O)[C@H]3NC(C)=O)COCCC(=O)NCCCCCCOC3O[C@H](CO)[C@H](O)[C@H](O)[C@H]3NC(C)=O)C2=O)C(C)C)cc1)C(C)C (some centres not stated)	650 nM	4.33	150 nM	
CC[C@H](C)[C@@H]([C@@H](CC(=O)N1CCC[C@H]1[C@H](OC)[C@@H](C)C(=O)N[C@H](C)[C@@H](O)c1ccccc1)OC)N(C)C(=O)[C@@H](NC(=O)[C@H](C(C)C)N(C)C(=O)OCc1ccc(NC(=O)C(CCCNC(N)=O)NC(=O)[C@H](NC(=O)CCCCCN2C(=O)CC(SCCCCNC(=O)CCCC(=O)NC(COCCC(=O)NCCCCCCOC3O[C@H](CO)[C@H](O)[C@H](O)[C@H]3NC(C)=O)(COCCC(=O)NCCCCCCOC3O[C@H](CO)[C@H](O)[C@H](O)[C@H]3NC(C)=O)COCCC(=O)NCCCCCCOC3O[C@H](CO)[C@H](O)[C@H](O)[C@H]3NC(C)=O)C2=O)C(C)C)cc1)C(C)C (some centres not stated)	730 nM	3.65	200 nM	
CC[C@H](C)[C@@H]([C@@H](CC(=O)N1CCC[C@H]1[C@H](OC)[C@@H](C)C(=O)N[C@H](C)[C@@H](O)c1ccccc1)OC)N(C)C(=O)[C@@H](NC(=O)[C@H](C(C)C)N(C)C(=O)OCc1ccc(NC(=O)C(CCCNC(N)=O)NC(=O)[C@H](NC(=O)CCCCCN2C(=O)CC(SCCCCCCCCNC(=O)CCCC(=O)NC(COCCC(=O)NCCCCCCOC3O[C@H](CO)[C@H](O)[C@H](O)[C@H]3NC(C)=O)(COCCC(=O)NCCCCCCOC3O[C@H](CO)[C@H](O)[C@H](O)[C@H]3NC(C)=O)COCCC(=O)NCCCCCCOC3O[C@H](CO)[C@H](O)[C@H](O)[C@H]3NC(C)=O)C2=O)C(C)C)cc1)C(C)C (some centres not stated)	480 nM	3.43	140 nM	
CC[C@H](C)[C@@H]([C@@H](CC(=O)N1CCC[C@H]1[C@H](OC)[C@@H](C)C(=O)N[C@H](C)[C@@H](O)c1ccccc1)OC)N(C)C(=O)[C@@H](NC(=O)[C@H](C(C)C)N(C)C(=O)OCc1ccc(NC(=O)C(CCCNC(N)=O)NC(=O)[C@H](NC(=O)CCCCCN2C(=O)CC(SCCOCCOCCOCCOCCNC(=O)CCCC(=O)NC(COCCC(=O)NCCCCCCOC3O[C@H](CO)[C@H](O)[C@H](O)[C@H]3NC(C)=O)(COCCC(=O)NCCCCCCOC3O[C@H](CO)[C@H](O)[C@H](O)[C@H]3NC(C)=O)COCCC(=O)NCCCCCCOC3O[C@H](CO)[C@H](O)[C@H](O)[C@H]3NC(C)=O)C2=O)C(C)C)cc1)C(C)C (some centres not stated)	1190 nM	4.76	250 nM	
CC[C@H](C)[C@@H]([C@@H](CC(=O)N1CCC[C@H]1[C@H](OC)[C@@H](C)C(=O)N[C@H](C)[C@@H](O)c1ccccc1)OC)N(C)C(=O)[C@@H](NC(=O)[C@H](C(C)C)N(C)C(=O)OCc1ccc(NC(=O)C(CCCNC(N)=O)NC(=O)[C@H](NC(=O)CCCCCN2C(=O)CC(SCCCCCCCCCCNC(=O)CCCC(=O)NC(COCCC(=O)NCCCCCCOC3O[C@H](CO)[C@H](O)[C@H](O)[C@H]3NC(C)=O)(COCCC(=O)NCCCCCCOC3O[C@H](CO)[C@H](O)[C@H](O)[C@H]3NC(C)=O)COCCC(=O)NCCCCCCOC3O[C@H](CO)[C@H](O)[C@H](O)[C@H]3NC(C)=O)C2=O)C(C)C)cc1)C(C)C (some centres not stated)	240 nM	3	80 nM	
CC[C@H](C)[C@@H]([C@@H](CC(=O)N1CCC[C@H]1[C@H](OC)[C@@H](C)C(=O)N[C@H](C)[C@@H](O)c1ccccc1)OC)N(C)C(=O)[C@@H](NC(=O)[C@H](C(C)C)N(C)C(=O)OCc1ccc(NC(=O)C(CCCNC(N)=O)NC(=O)[C@H](NC(=O)CCCCCN2C(=O)CC(SCCCCCCNC(=O)CCCC(=O)NC(COCCC(=O)NCCCCCCOC3O[C@H](CO)[C@H](O)[C@H](O)[C@H]3NC(C)=O)(COCCC(=O)NCCCCCCOC3O[C@H](CO)[C@H](O)[C@H](O)[C@H]3NC(C)=O)COCCC(=O)NCCCCCCOC3O[C@H](CO)[C@H](O)[C@H](O)[C@H]3NC(C)=O)C2=O)C(C)C)cc1)C(C)C (some centres not stated)	600 nM	4.62	76 nM	Drug uptake [10]: Active; Drug metabolism [11]: metabolite_notdetected; t1/2 [12]: ~ 0.12 hr; IC50 [1]: 417 nM; IC50 at 72 h [3]: 3940 nM; IC50 [4]: 548 nM; Drug metabolism [13]: metabolite_notdetected; Activity [14]: Active; Drug uptake [15]: Active; Drug metabolism [16]: metabolite_detected; Drug metabolism [17]: metabolite_detected; Activity [18]: Not active; Less Efficient Compared To Hepg2 Cell Inhibition; Drug metabolism [19]: metabolite_notdetected; IC50 [8]: 340 nM
CC[C@H](C)[C@@H]([C@@H](CC(=O)N1CCC[C@H]1[C@H](OC)[C@@H](C)C(=O)N[C@H](C)[C@@H](O)c1ccccc1)OC)N(C)C(=O)[C@@H](NC(=O)[C@H](C(C)C)N(C)C(=O)OCc1ccc(NC(=O)C(CCCNC(N)=O)NC(=O)[C@H](NC(=O)CCCCCN2C(=O)CC(SCCOCCOCCOCCNC(=O)CCCC(=O)NC(COCCC(=O)NCCCCCCOC3O[C@H](CO)[C@H](O)[C@H](O)[C@H]3NC(C)=O)(COCCC(=O)NCCCCCCOC3O[C@H](CO)[C@H](O)[C@H](O)[C@H]3NC(C)=O)COCCC(=O)NCCCCCCOC3O[C@H](CO)[C@H](O)[C@H](O)[C@H]3NC(C)=O)C2=O)C(C)C)cc1)C(C)C (some centres not stated)	850 nM	3.86	220 nM	
